Data on 14 molecules can be found in patent publication US8691986B2, “Azetidine and piperidine compounds useful as PDE10 inhibitors” (Amgen Inc., priority 2012, dated 2014).

Series [1] relates to rat MDR1 (mdr1a, P-gp). Put plainly: Transcellular transport in rat mdr1a-transfected LLC-PK1 cells. It is filed as in vitro ADME. The settings on record: pH 7.4, mdr1a-LLC-PK1, 5 μM test compound. The procedure:
(§1) Digoxin and mannitol were purchased from Sigma-Aldrich (St. Louis, Mo.). 3H-digoxin and 14C-mannitol were purchased from PerkinElmer Life and Analytical Sciences (Boston, Mass.). Transport buffer was prepared using Hank's balanced salt solution (HBSS) supplemented with 10 mM Hepes, pH 7.4 and 0.1% BSA (HHBSS, Invitrogen, Grand Island, N.Y., BSA, Bovine Serum Albumin, Calbiochem, La Jolla, Calif.).
(§2) Cultures were incubated at 37° C. in a humidified (95% relative humidity) atmosphere of 5% CO2/95% air. The parental cell line LLC-PK1 (porcine renal epithelial cells) was purchased from American Type Culture Collection (ATCC, Manassas, Va.). Human MDR1 and Sprague-Dawley rat mdra1 transfectants in LLC-PK1 were generated at Amgen (Thousand Oaks, Calif.). Cells were cultured in Medium 199 supplemented with 2 mM L-glutamine, penicillin (50 units/mL), streptomycin (50 μg/mL), and 10% (v/v) fetal bovine serum (all from Invitrogen) (Schinkel et al, 1995).
(§3) LLC-PK1, MDR1-LLC-PK1, and mdr1a-LLC-PK1 cell monolayers were seeded onto porous (1.0 μm) polycarbonate 96-well transwell membrane filters (Millipore Corp., Billerica, Mass.) and cultured for six days with one media replacement on day four prior to transwell experiments. Cells were washed once with warmed HHBS prior to transwell experiments. Experiments were initiated by replacing the buffer in each compartment with 0.15 mL of HBSS containing 0.1% BSA with and without 5 μM of test compound in triplicate wells. The plates were incubated for two hours at 37° C. in an EVO incubator with shaking. Aliquots (100 μl) from both donor and receiver chambers were transferred to 96 well plates or scintillation vials. Protein was precipitated by addition of 200 μL acetonitrile containing 0.1% formic acid and prazosin (25 ng/mL) as internal standard. After vortexing and centrifugation at 3000 rpm for 20 min, 150 μL supernatant samples were transferred to a new plate containing 50 μL water for LC-MS/MS analysis. Transcellular transport of 3H-Digoxin was used as a positive control for Pgp. Paracellular permeability of 14C-Mannitol was used to measure the integrity of the monolayer. Sample radioactivity was measured using a liquid scintillation counter (Packard Tri-Carb 2910TR, PerkinElmer).
(§4) The apparent permeability coefficient (Papp) of all tested agents was estimated from the slope of cumulative amount (dQ) of the agent vs. time (dt), and the equation: Papp=(dQ/dt)/(A*C0)
(§5) where dQ/dt is the penetration rate of the agent […], A is the surface area of the cell layer on the Transwell (0.11 cm2), and CO is the initial concentration of the test compound (μM).

The target of series [2] is PDE10 (Rattus norvegicus (Rat), UniProt Q9QYJ6). Put plainly: PDE10 ex vivo receptor occupancy (RO) screening in rat striatum. The settings on record: oral; for receptor occupancy at 3 mg/kg: 3 mpk, 4 h (footnote C); for receptor occupancy at 10 mg/kg: 10 mpk. The protocol:
The ex vivo screening protocol was approved by Amgen's Institutional Animal Care and Use Committee (IACUC) and in accordance with the National Institutes of Health Guide for Care and Use of Laboratory Animals in facilities accredited by the Association for the Assessment and Accreditation of Laboratory Animal Care (AALAC).
PDE10 inhibitors were dissolved in 2% Hydroxypropylmethylcellulose (HPMC), 1% Tween-80, pH 2.2 with methanesulfonic acid. Male Sprague Dawley® rats weighing 180-225 g (4 per group) were dosed orally with either vehicle or PDE10 inhibitors (3 mg/kg or 10 mg/kg) and then returned to their home cage to allow for absorption of the compounds. After one hour (with 10 mg/kg PDE10 inhibitor) or four hours (with 3 mg/kg or 10 mg/kg PDE10 inhibitor) rats were sacrificed by CO2 inhalation. Blood was obtained by heart puncture and plasma was frozen and stored at −80° C. for exposure analysis. Brains were removed and immediately frozen in chilled methylbutane, and stored at −80° C. until cutting. Three coronal brain slices per brain containing the striatum were cut at […] using a cryostat and placed onto microscope slides, air-dried and stored at −20° C. For radioligand binding experiments, slides were thawed at room temperature and then incubated with 1 nM a tritium labeled tracer compound (insert citation) in binding buffer (150 mM Phosphate-buffered saline containing 2 mM MgCl2 and 100 mM DTT, pH 7.4) for 1 minute at 4° C. To assess non-specific binding, slides containing adjacent brain sections were incubated in the same solution with addition of […] of an unlabelled, structurally unrelated PDE10 antagonist. Afterwards slides were washed 3 times in ice-cold binding buffer, dipped into distilled water to remove buffer salts, and dried under a stream of cold air. Emission of beta particles from the sections was counted for 8 hours in a Beta Imager 2000 (Biospace, Paris, France) and digitized and analyzed using M3 Vision software (Biospace, Paris, France). Total binding radioactivity in the striatum was measured as cpm/mm^2 in hand-drawn regions of interest and averaged across the three sections per brain. Non-specific binding was subtracted to obtain specific binding values and percent occupancy was calculated by setting vehicle specific binding as 0% occupancy.

The target in series [3] is human MDR1 (P-gp) (Homo sapiens (Human), UniProt P08183). Put plainly: Transcellular transport in human MDR1-transfected LLC-PK1 cells. It counts as in vitro ADME. The settings on record: pH 7.4, MDR1-LLC-PK1, 5 μM test compound. The protocol:
as §1, §2, §3, §4, §5

PDE10, sequence (Q9QYJ6 whole entry): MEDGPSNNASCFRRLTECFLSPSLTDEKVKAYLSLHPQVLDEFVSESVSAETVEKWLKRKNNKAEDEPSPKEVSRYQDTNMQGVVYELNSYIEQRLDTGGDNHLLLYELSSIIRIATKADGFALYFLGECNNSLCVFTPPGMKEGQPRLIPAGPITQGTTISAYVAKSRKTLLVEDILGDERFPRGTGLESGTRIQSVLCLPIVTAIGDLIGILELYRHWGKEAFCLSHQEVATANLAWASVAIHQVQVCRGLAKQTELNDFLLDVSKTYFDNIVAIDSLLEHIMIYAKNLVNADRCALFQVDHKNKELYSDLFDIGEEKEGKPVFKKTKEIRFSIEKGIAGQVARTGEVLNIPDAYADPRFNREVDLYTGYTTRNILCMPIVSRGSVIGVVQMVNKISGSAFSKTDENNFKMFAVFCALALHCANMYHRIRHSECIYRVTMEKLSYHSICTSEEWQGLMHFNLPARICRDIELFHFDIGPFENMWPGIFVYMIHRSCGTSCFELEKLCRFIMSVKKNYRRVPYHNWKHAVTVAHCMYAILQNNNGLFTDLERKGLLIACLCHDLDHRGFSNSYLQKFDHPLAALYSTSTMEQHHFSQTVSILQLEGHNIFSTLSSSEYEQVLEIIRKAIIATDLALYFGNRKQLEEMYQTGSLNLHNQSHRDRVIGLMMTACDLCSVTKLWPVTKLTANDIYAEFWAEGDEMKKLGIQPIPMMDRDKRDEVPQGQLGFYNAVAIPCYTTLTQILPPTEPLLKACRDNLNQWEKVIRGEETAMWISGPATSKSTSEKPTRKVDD
human MDR1 (P-gp), sequence (P08183 whole entry): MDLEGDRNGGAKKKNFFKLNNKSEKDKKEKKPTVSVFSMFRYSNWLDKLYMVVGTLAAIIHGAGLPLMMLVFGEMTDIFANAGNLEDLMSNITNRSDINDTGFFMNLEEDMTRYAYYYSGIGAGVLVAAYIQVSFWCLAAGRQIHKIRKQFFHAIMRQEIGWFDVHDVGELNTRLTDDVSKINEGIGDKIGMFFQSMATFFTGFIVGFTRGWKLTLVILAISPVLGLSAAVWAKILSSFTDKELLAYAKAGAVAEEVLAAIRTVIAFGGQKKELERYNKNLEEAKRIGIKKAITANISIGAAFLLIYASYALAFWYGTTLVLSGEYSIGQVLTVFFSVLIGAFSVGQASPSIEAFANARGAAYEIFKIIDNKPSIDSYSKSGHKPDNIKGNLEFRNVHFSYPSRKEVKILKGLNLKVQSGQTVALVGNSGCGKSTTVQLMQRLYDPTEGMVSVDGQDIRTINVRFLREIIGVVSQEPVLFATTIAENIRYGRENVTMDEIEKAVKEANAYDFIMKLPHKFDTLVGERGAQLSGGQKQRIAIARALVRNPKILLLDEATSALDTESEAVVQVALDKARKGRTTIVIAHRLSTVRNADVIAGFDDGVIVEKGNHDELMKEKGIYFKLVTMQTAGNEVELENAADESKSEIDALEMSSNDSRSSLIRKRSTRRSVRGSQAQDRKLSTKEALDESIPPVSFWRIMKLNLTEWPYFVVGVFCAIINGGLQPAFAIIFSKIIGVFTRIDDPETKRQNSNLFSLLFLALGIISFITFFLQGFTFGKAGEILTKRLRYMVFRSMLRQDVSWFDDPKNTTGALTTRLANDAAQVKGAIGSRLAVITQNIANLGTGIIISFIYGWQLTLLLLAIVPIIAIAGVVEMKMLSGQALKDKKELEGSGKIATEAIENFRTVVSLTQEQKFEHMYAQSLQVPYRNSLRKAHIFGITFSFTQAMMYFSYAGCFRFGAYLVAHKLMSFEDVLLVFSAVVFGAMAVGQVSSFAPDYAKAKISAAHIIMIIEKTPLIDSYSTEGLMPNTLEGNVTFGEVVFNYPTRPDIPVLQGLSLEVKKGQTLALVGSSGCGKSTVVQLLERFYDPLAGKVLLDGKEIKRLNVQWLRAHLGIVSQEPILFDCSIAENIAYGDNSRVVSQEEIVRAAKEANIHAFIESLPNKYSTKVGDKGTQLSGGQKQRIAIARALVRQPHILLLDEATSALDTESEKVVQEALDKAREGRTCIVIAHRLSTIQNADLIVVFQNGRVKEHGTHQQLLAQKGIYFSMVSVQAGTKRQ

Turning to `CNC(=O)c1ccc(-c2nccnc2C2CN(c3ncc4ccc(F)cc4n3)C2)cc1F` [Example 9, 2-Fluoro-4-(3-(1-(7-Fluoroquinazolin-2-Yl)Azetidin-3-Yl)Pyrazin-2-Yl)-N-Methylbenzamide], the efflux ratio (usually the permeability from basolateral to apical divided by that in the opposite direction, in the common usage) at 2 h, 5 μM in series [1] stood at 2.7; in series [3], 1.8. Also, the receptor occupancy at 3 mg/kg in series [2] amounted to 61.8%. For the same molecule, the receptor occupancy at 10 mg/kg in series [2] (1 h (footnote A)) came out at 123%; in series [2] (4 h (footnote B)) it was 87.1%.

`CNC(=O)c1ccc(-c2nccnc2C2CN(c3ccc4ccccc4n3)C2)cc1F` [Example 7, 2-Fluoro-N-Methyl-4-(3-(1-(Quinolin-2-Yl)Azetidin-3-Yl) Pyrazin-2-Yl)Benzamide]: the efflux ratio at 2 h, 5 μM stood at 3.1 in series [1] and 2.95 in series [3]. For the same molecule, the receptor occupancy at 3 mg/kg in series [2] came out at 110%. This molecule showed a receptor occupancy at 10 mg/kg in series [2] (1 h (footnote A)) of 93.2%.

Take `CNC(=O)c1ccc(-c2nccnc2C2CCN(c3ccc4ccc(Cl)cc4n3)CC2)cc1F` [Example 1, 4-(3-(1-(7-Chloroquinolin-2-Yl)Piperidin-4-Yl)Pyrazin-2-Yl)-2-Fluoro-N-Methylbenzamide]: the figures for the efflux ratio at 2 h, 5 μM in series [1] and in series [3] were 2.3 and 2.9, respectively. The receptor occupancy at 3 mg/kg in series [2] was 58.8%. The molecule further came in with a receptor occupancy at 10 mg/kg in series [2] (4 h (footnote B)) of 79%.

With `CNC(=O)c1ccc(-c2nccnc2C2CN(c3ncc4ccccc4n3)C2)cc1F` [Example 6, 2-Fluoro-N-Methyl-4-(3-(1-(Quinazolin-2-Yl)Azetidin-3-Yl)Pyrazin-2-Yl)Benzamide], the efflux ratio at 2 h, 5 μM in series [1] amounted to 1.2; in series [3], 1.8. For the same molecule, in series [2], the receptor occupancy at 3 mg/kg turned out to be 62.6%. Further, in series [2] (1 h (footnote A)), the receptor occupancy at 10 mg/kg is 85.4%.

Consider `CNC(=O)c1ccc(-c2nccnc2C2CCN(c3ccc4cccc(F)c4n3)CC2)cc1F` [Example 5, 2-Fluoro-4-(3-(1-(8-Fluoroquinolin-2-Yl)Piperidin-4-Yl)Pyrazin-2-Yl)-N-Methylbenzamide], for which the efflux ratio at 2 h, 5 μM came out at 2.3 in series [1] and 2.5 in series [3]. The molecule further came in with a receptor occupancy at 3 mg/kg in series [2] of 68.3%.

In the case of `CNC(=O)c1ccc(-c2nccnc2C2CN(c3ncc4cc(F)c(Cl)cc4n3)C2)cc1F` [Example 12, 4-(3-(1-(7-Chloro-6-Fluoroquinazolin-2-Yl)Azetidin-3-Yl)Pyrazin-2-Yl)-2-Fluoro-N-Methylbenzamide], the efflux ratio at 2 h, 5 μM in series [1] was found to be 2.8; in series [3], 1.85. The molecule further had a receptor occupancy at 3 mg/kg in series [2] of 91.4%.

`CNC(=O)c1ccc(-c2nccnc2C2CN(c3ccc4cc(F)ccc4n3)C2)cc1F` [Example 13, 2-Fluoro-4-(3-(1-(6-Fluoroquinolin-2-Yl)Azetidin-3-Yl) Pyrazin-2-yl)-N-Methylbenzamide]: the figures for the efflux ratio at 2 h, 5 μM in series [1] and in series [3] were 2.7 and 3.02, respectively. Moreover, the receptor occupancy at 3 mg/kg in series [2] is 77%.

As to `CNC(=O)c1ccc(-c2nccnc2C2CCN(c3ccc4cc(F)ccc4n3)CC2)cc1F` [Example 4, 2-Fluoro-4-(3-(1-(6-Fluoroquinolin-2-Yl)Piperidin-4-Yl)Pyrazin-2-Yl)-N-Methylbenzamide], the efflux ratio at 2 h, 5 μM in series [1] came to 2.2; in series [3], 3.4. Also, the receptor occupancy at 3 mg/kg in series [2] was determined as 93.3%.

In the case of `CNC(=O)c1ccc(-c2nccnc2C2CN(c3ncc4ccc(Cl)cc4n3)C2)cc1F` [Example 10, 4-(3-(1-(7-Chloroquinazolin-2-Yl)Azetidin-3-Yl)Pyrazin-2-Yl)-2-Fluoro-N-Methylbenzamide], the efflux ratio at 2 h, 5 μM was 1.2 in series [1] and 1.8 in series [3]. Moreover, in series [2], the receptor occupancy at 3 mg/kg turned out to be 108%. Moreover, the receptor occupancy at 10 mg/kg in series [2] (1 h (footnote A)) turned out to be 101%.

Take `CNC(=O)c1ccc(-c2nccnc2C2CN(c3ccc4ncc(Cl)cc4n3)C2)cc1F` [Example 14, 4-(3-(1-(7-Chloro-1,5-Naphthyridin-2-Yl)Azetidin-3-Yl)Pyrazin-2-Yl)-2-Fluoro-N-Methylbenzamide]: the efflux ratio at 2 h, 5 μM was 1.1 in series [1] and 1.25 in series [3]. The molecule further returned a receptor occupancy at 3 mg/kg in series [2] of 78.5%.

For `CNC(=O)c1ccc(-c2nccnc2C2CN(c3ncc4cc(F)ccc4n3)C2)cc1F` [Example 11, 2-Fluoro-4-(3-(1-(6-Fluoroquinazolin-2-Yl)Azetidin-3-Yl)Pyrazin-2-Yl)-N-Methylbenzamide], the figures for the efflux ratio at 2 h, 5 μM in series [1] and in series [3] were 1.2 and 1.75, respectively. In addition, the receptor occupancy at 3 mg/kg in series [2] was determined as 67.5%. Also, in series [2] (4 h (footnote B)), the receptor occupancy at 10 mg/kg is 80%.

In the case of `CNC(=O)c1ccc(-c2nccnc2C2CCN(c3ccc4ccccc4n3)CC2)cc1F` [Example 3, 2-Fluoro-N-Methyl-4-(3-(1-(Quinolin-2-Yl)Piperidin-4-Yl)Pyrazin-2-Yl)Benzamide], the efflux ratio at 2 h, 5 μM in series [1] stood at 2.1; in series [3], 2. The same molecule returned a receptor occupancy at 3 mg/kg in series [2] of 97.4%.

Regarding `CNC(=O)c1ccc(-c2nccnc2C2CCN(c3ccc4ccc(F)cc4n3)CC2)cc1F` [Example 2, 2-Fluoro-4-(3-(1-(7-Fluoroquinolin-2-Yl)Piperidin-4-Yl) Pyrazin-2-Yl)-N-Methylbenzamide], the efflux ratio at 2 h, 5 μM in series [1] is 2.7; in series [3] it was 2.4. In series [2] (4 h (footnote B)), the receptor occupancy at 10 mg/kg came out at 112%.

Take `CNC(=O)c1ccc(-c2nccnc2C2CN(c3ccc4ccc(F)cc4n3)C2)cc1F` [Example 8, 2-Fluoro-4-(3-(1-(7-Fluoroquinolin-2-Yl)Azetidin-3-Yl) Pyrazin-2-Yl)-N-Methylbenzamide]: the figures for the efflux ratio at 2 h, 5 μM in series [1] and in series [3] were 2.5 and 2.8, respectively. Also, the receptor occupancy at 3 mg/kg in series [2] was determined as 83.5%. Besides, the receptor occupancy at 10 mg/kg in series [2] (1 h (footnote A)) was 134%.
